PMC10575874, “Structural insights into the allosteric inhibition of P2X4 receptors” (Nature Communications, 2023)

T1: human P2X3 receptor, P2X4-like gain-of-function mutant (Homo sapiens, UniProt P56373, M75W/T82I/V98I)
T1 construct: gene P2RX3
T1 sequence (P56373 1-397 M75W/T82I/V98I): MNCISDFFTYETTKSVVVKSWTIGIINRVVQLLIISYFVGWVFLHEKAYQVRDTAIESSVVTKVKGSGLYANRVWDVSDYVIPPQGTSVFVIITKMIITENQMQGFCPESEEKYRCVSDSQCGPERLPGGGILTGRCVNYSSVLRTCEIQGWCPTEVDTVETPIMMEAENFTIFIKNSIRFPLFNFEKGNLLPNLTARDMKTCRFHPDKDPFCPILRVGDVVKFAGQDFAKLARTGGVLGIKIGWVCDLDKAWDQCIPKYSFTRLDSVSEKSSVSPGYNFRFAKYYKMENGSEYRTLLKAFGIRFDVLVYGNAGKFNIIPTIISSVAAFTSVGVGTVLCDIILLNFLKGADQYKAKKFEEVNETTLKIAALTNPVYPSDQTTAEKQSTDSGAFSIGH

T2: zebrafish P2X4 receptor (zfP2X4) (Danio rerio, UniProt F8W463)
T2 construct: gene p2rx4a; residues 9-382 (GenBank AAH66495.1), trimer in PMAL-C8 amphipol
T2 sequence (F8W463 9-382): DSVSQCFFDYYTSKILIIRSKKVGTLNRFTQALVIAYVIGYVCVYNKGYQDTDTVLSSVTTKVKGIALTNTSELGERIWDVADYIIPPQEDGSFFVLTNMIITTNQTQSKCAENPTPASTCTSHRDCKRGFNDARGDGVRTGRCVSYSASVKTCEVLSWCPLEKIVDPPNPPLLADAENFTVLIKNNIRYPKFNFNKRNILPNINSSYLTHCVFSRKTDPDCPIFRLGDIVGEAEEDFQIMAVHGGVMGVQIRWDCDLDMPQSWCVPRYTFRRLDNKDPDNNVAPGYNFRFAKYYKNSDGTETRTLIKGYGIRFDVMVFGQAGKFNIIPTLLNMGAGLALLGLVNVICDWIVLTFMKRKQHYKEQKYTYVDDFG

B1: zebrafish P2X4 receptor (residues 9-382) (receptor, UniProt F8W463 9-382, looked up)
chain: DSVSQCFFDYYTSKILIIRSKKVGTLNRFTQALVIAYVIGYVCVYNKGYQDTDTVLSSVTTKVKGIALTNTSELGERIWDVADYIIPPQEDGSFFVLTNMIITTNQTQSKCAENPTPASTCTSHRDCKRGFNDARGDGVRTGRCVSYSASVKTCEVLSWCPLEKIVDPPNPPLLADAENFTVLIKNNIRYPKFNFNKRNILPNINSSYLTHCVFSRKTDPDCPIFRLGDIVGEAEEDFQIMAVHGGVMGVQIRWDCDLDMPQSWCVPRYTFRRLDNKDPDNNVAPGYNFRFAKYYKNSDGTETRTLIKGYGIRFDVMVFGQAGKFNIIPTLLNMGAGLALLGLVNVICDWIVLTFMKRKQHYKEQKYTYVDDFG
notes: P2X4 receptor, zebrafish (Danio rerio), GenBank AAH66495.1, residues 9-382 (truncation of the N-terminal 8 and the C-terminal 7 residues); Homotrimer; A C-terminal HRV 3C site stood before TGP and the Twin-Strep-tag; residues of the site may remain after cleavage; also called zfP2X4; source: Sf9 (baculovirus), purified (Strep-Tactin, HRV 3C cleavage, SEC), reconstituted into PMAL-C8 amphipol; not …

What was measured:
[1] = biological target: T1, human P2X3 receptor, P2X4-like gain-of-function mutant; experiment: patch clamp of ATP-evoked currents in HEK293 cells at […] BX430; assay type: cell-based
[2] = biological target: T2, zebrafish P2X4 receptor (zfP2X4); experiment: cryo-EM structure ([…] Å); whole-cell patch clamp in HEK293 cells
[3] = biological target: the molecule itself; experiment: cryo-EM structure; purified zfP2X4 in PMAL-C8 amphipol, incubated with 50 uM BX430 or 125 uM BAY-1797 for 1 h; C3 symmetry imposed, also processed with C1 symmetry

| Molecule | patch clamp of ATP-evoked currents in HEK293 cells at 30 and 100 μM BX430 [1] | IC50 [2] | stoichiometry N [3] |
| --- | --- | --- | --- |
| CC(C)c1cc(Br)c(NC(=O)Nc2cccnc2)c(Br)c1 [BX430, 1-(2,6-dibromo-4-isopropylphenyl)-3-(3-pyridyl)urea] | the P2X4-like mutant of human P2X3 (M75W/T82I/V98I) conferred sensitivity to BX430 | BX430-bound zfP2X4 (EMD-36668) (PDB 8JV5) | – |
| B1 | – | – | 3 |
